Patent US20060216336A1, “Transdermal therapeutic system for Parkinson's Disease” (priority 2002, published 2006)

Test: Placebo-controlled trial in early stage idiopathic Parkinson's disease: rotigotine plasma concentrations during titration and maintenance (Example 5)
Format: in vivo, human
Details: for rotigotine plasma concentration, Max / rotigotine plasma concentration, Mean / rotigotine plasma concentration, Median / rotigotine plasma concentration, Min: prior removal
From the text: Trial periods consisted of a 4-week pre-treatment (washout) period, a 3-week dose escalation period, a 25-week dose maintenance period, and a 4-week follow-up period for a total duration of 36 weeks.

[1] = Day 1 MP (maintenance period), 13.5 mg/day
[2] = Day 15 TP (titration period), 9.0 mg/day
[3] = Day 57 MP (maintenance period), 13.5 mg/day
[4] = Day 113 MP (maintenance period), 13.5 mg/day
[5] = End of MP (maintenance period), 13.5 mg/day

Structure (SMILES): CCCN(CCc1cccs1)[C@H]1CCc2c(O)cccc2C1 [rotigotine, (6S)-6{propyl[2-(2-thienyl)ethyl]amino}-5,6,7,8-tetrahydro-1-naphthalenol]
- rotigotine plasma concentration, Max [1]: 2.130 ng/mL
- rotigotine plasma concentration, Mean [1]: 0.757 ng/mL
- rotigotine plasma concentration, Median [1]: 0.714 ng/mL
- rotigotine plasma concentration, Min [1]: 0.064 ng/mL
- rotigotine plasma concentration, Max [2]: 1.580 ng/mL
- rotigotine plasma concentration, Mean [2]: 0.508 ng/mL
- rotigotine plasma concentration, Median [2]: 0.435 ng/mL
- rotigotine plasma concentration, Min [2]: 0.053 ng/mL
- rotigotine plasma concentration, Max [3]: 2.070 ng/mL
- rotigotine plasma concentration, Mean [3]: 0.824 ng/mL
- rotigotine plasma concentration, Median [3]: 0.702 ng/mL
- rotigotine plasma concentration, Max [4]: 2.420 ng/mL
- rotigotine plasma concentration, Mean [4]: 0.825 ng/mL
- rotigotine plasma concentration, Median [4]: 0.713 ng/mL
- rotigotine plasma concentration, Min [4]: 0.122 ng/mL
- rotigotine plasma concentration, Max [5]: 1.800 ng/mL
- rotigotine plasma concentration, Mean [5]: 0.788 ng/mL
- rotigotine plasma concentration, Median [5]: 0.729 ng/mL
- rotigotine plasma concentration, Min [5]: 0.282 ng/mL
- rotigotine plasma concentration over the maintenance phase (FIG. 10): stable concentration
